The record followed here is patent publication US20240131112A1, “USE OF METHANOBACTIN FOR TREATMENT OF IRON-RELATED DISEASES” (Helmholtz Zentrum Muenchen - Deutsches Forschungszentrum …, priority 2021, published 2024).

The test system of assay [1] is Huh7 cells (human hepatoma cell line). Put plainly: Cellular iron concentration in iron-preloaded Huh7 cells. The assay is classed as cell-based. Particulars: Huh7 preloaded 24 hours with 50 μM FAC, then 0.5 mM test substance for 24 hours, N=4. Here is the method:
FIG. 5: Control Huh7 cells (human hepatoma cell line) were preloaded for 24 hours with 50 μM FAC. The cells were then treated with 0.5 mM MB-SB2, 0.5 mM MB-OB3b and 0.5 mM DFO for 24 hours. […] Statistical analysis was done by One-way ANOVA (N=4).

Assay [2] relates to livers from LPP Atp7b^−/− rats. Description: Liver perfusion experiments, biliary iron excretion. Also on record: species or system rat. The following applies: liver perfusion one hour at 37° C., 35 μmol methanobactin, ICP-OES. How it is done: Cannulated livers from LPP Atp7b^−/− rats were perfused for one hour at 37° C. with Krebs-Ringer bicarbonate solution, gassed with 95% O2 and 5% CO2, and MB-SB2 or MB-OB3b (35 μmol). During perfusion total bile was collected in 10-minute intervals. Biliary iron concentrations were determined by inductively coupled plasma optical emission spectrometry (ICP-OES) as described (Lichtmannegger et al. J Clin Invest, 2016, 126, 2721-2735).

The test system of another assay is LPP Atp7b^−/− rats. Put plainly: Fecal iron excretion after intraperitoneal injection. The assay is classed as in vivo, rat. The following applies: i.p. twice a day for four days, 110 mg/kg bw MB-SB2 or 150 mg/kg bw MB-OB3b, ICP-OES. How it is done: LPP Atp7b^−/− rats were injected intraperitoneally (i.p.) twice a day for four consecutive days with either 110 mg/kg bw MB-SB2 or 150 mg/kg bw MB-OB3b. Rats were housed individually in metabolic cages for 4 days. Feces of each rat was collected in 24-hour periods at 24, 48, 72 and 96 hours after treatment start. Feces was separated from chow residues, dried, homogenized by grinding or milling and digested with concentrated HNO3 and iron content determined with inductively coupled plasma optical emission spectrometry (ICP-OES).

Turning to `CC(NC(=O)C(C)NC(=S)C1N=C(C(NC(=O)C(CO)NC(=O)C(C)NC(=S)C2N=C(C(=O)CCCNC(=N)N)NC2=O)C(C)OS(=O)(=O)O)OC1=O)C(=O)O` (stereo not drawn) [MB-SB2], the Cellular iron concentration result in assay [1] is “significantly reduces cellular iron concentration in iron-preloaded Huh7 cells to the untreated level”. Further, in assay [2], the Biliary iron excretion result is given as “brings iron to the bile”. The Fecal iron excretion result in the assay with LPP Atp7b^−/− rats is reported as “excrete iron in feces”.
